One series concerns Staphylococcus aureus. In words: Kirby-Bauer antibiotic sensitivity test on Mueller-Hinton agar. The series is classed as cell-based. As to conditions: 6 mm filter papers, 37 degrees, 24 h. On the procedure:
FIG. 19. Kirby-Bauer antibiotic testing. BC-1215 was tested in antibiotic sensitivity tests using Mueller-Hinton agar. Briefly, 6 mm filter papers containing different amounts of BC-1215 or gentamicin (positive control) were added on the Mueller-Hinton agar pre-exposed to Staphylococcus aureus. The plates were incubated at 37 degrees for 24 h. Zone sizes were measured and marked by a red circle indicating positive results.
Briefly, 6 mm filter papers containing different amounts of BC-1215 or gentamicin antibiotic (positive control) were added on the Mueller-Hinton agar pre-exposed to Staphylococcus aureus. The plates were incubated at 37 degrees for 24 h. Zone sizes were measured and marked by a red circle indicating positive results.

A further series has as its system PBMC cells. In words: LPS-treated PBMC human cytokine array. The series is classed as cell-based. As to conditions: 10 ug/ml compound, 2 ug/ml LPS, 16 hrs. As for the experimental part: FIG. 9. BC-1215 inhibits a broad spectrum of Th1 panel cytokines. PBMC cells (0.6 ml at 1.5*10^6/ml) were treated with 2 ug/ml LPS for 16 his with BC-1215 at 10 ug/ml. Cytokine release was monitored by the human cytokine array (R&D systems).
PBMC cells were treated with 2 ug/ml LPS for 16 hrs along with BC-1215 at 10 ug/ml. Cytokine release was monitored by a human cytokine array (R&D systems). […] These cytokines are tightly linked to the pathogenesis of many pro-inflammatory diseases, some of which have led to the use of blocking cytokine antibodies to reduce disease severity. For example: GM-CSF drives inflammation in rheumatoid arthritis (RA), and currently, GM-CSF blocking antibodies (MOR103) have been tested in Phase 1b/2a trial in patients suffering from RA.

For another series, the system named is U937 monocyte. In words: U937 monocyte Trypan blue cell death (LD50). The series is classed as cell-based, human. As to conditions: U937 monocytes, 16 h. As for the experimental part:
FIGS. 20A-20J is a table depicting benzathine compounds, and assay results. PBMC cells (0.6 ml at 1.5*10^6/ml) were treated with 2 ug/ml LPS for 16 hrs along with each compound at different concentrations. IL1β and TNFα cytokine release were monitored by ELISA to calculate the IC50. U937 monocyte (0.6 ml at 1.5*10^6/ml) were treated with each compound at different concentrations for 16 h. Cells were then stained with Trypan blue to differentiate dead cells, and calculate the LD50. Therapeutic index (TI)=LD50/IC50. Compounds marked in red are high value targets (low IC50, high LD50) and require further testing in vivo.
Briefly, compounds were added to human PBMC cells at different concentrations that were exposed to […] and cytokine secretion was monitored by ELISA to determine the IC50. Compounds were also added to U937 monocytes at different concentrations, and cells were stained with trypan blue to determine the LD50. […] Several functional studies were undertaken to assess anti-inflammatory effects focusing on BC-1215.

The subject of series [1] is C57BL6 mice. Briefly: Carrageenan induced paw edema. The series is classed as in vivo. As to conditions: 200 ug IP daily, 48 h. On the procedure:
FIGS. 16A-16C. BC-1215 reduces Carrageenan induced paw edema. FIGS. 16A-16C. C57BL6 mice were deeply anesthetized with ketamine (80-100 mg/kg i.p.) and xylazine (10 mg/kg i.p.). Mice were received a subplantar administration of 25 ul of saline or 25 ul of carrageenan (1% in saline), followed by an IP injection of […] of BC-1215 daily for two days. Mice were then euthanized; the thickness and volume of paw was measured (FIG. 16B-16C). (n=4 mice/group, *p<0.05 versus vehicle)
BC-1215 ameliorates Carrageenan induced paw edema. BC-1215 also was tested in a mouse paw edema model to confirm its anti-inflammatory activity. Mice received subplantar administration of 25 ul of saline or 25 ul of carrageenan (1% in saline) (Posadas et al., Br J Pharmacol, 2004. 142(2):p. 331-8), followed by an IP injection of 200 ug of BC-1215 daily. 48 h later, mice were euthanized; the thickness and volume of the paw was measured. […] Thus, the FBXO3 inhibitor BC-1215 suppresses inflammation in a nonpulmonary model of edema involving the extremities.

The subject of series [2] is C57BL6 mice. Briefly: Pseudomonas aeruginosa PA103 pneumonia model. The series is classed as in vivo. The conditions noted are these: 100 ug IP, PA103 18 h.
Series [3] concerns C57BL6 mice. The series is classed as in vivo. As to conditions: mouse, in vivo.
The subject of series [4] is C57BL6 mice. In words: LPS induced (endotoxin) septic shock model. The series is classed as in vivo. The conditions noted are these: IP, 10 min before 100 ug LPS IP; blood at 90 min. As for the experimental part:
FIG. 11. BC-1215 inhibits cytokine release from in an endotoxin septic shock model. BC-1215 was solubilized in water using acetic acid in a 1:2 molar ratio; the stock solution of BC-1215 was 5 mg/ml. C57BL6 mice were deeply anesthetized with ketamine (80-100 mg/kg intraperitoneally (i.p.) and xylazine (10 mg/kg i.p.). 500 ug, 100 ug, 20 ug, 4 ug and 0.8 ug of BC-1215 was administered to mice through an intraperitoneal (IP) injection. 10 min later, mice were given 100 ug of LPS (E. coli) through an IP injection. 90 min later, mice were euthanized; blood was collected and tested for IL1-β, IL-6 and TNFα assays. (n=3/mice group at each dose)
Compound BC-1215 was first solubilized in water using acetic acid in a 1:2 molar ratio; the stock solution of BC-1215 was 5 mg/ml. 500 ug, 100 ug, 20 ug, 4 ug and 0.8 ug of BC-1215 was administered to mice though an intraperitoneal (IP) injection. 10 min later, mice were given 100 ug of LPS (E. coli) through an IP injection. 90 min later, mice were euthanized; blood was collected and tested for IL1-β, IL-6 and TNFα cytokine assays.

Like-named read-outs stand apart in the source and are kept apart here.

Method for Hela cells: Hela cells were treated with BC-1215 at different concentrations for 24 h before cell cycle analysis (BD bioscience).

In the case of `c1ccc(-c2ccc(CNCCNCc3ccc(-c4ccccn4)cc3)cc2)nc1` [BC-1215], the “S. aureus proliferation (zone of inhibition)” value in the series with Staphylococcus aureus was “inhibits S. aureus proliferation”. Moreover, the “TH1 panel cytokine release” value with PBMC cells is on record as “significantly suppress the majority of the TH1 panel cytokines”. For the same molecule, in the series with U937 monocyte, the LD50 entry is listed as “low”. Besides, in the series with C57BL6 mice [1], the paw edema result is “significantly reduced” and the paw thickness entry was “significantly reduced”. In the series with C57BL6 mice [2], the cell infiltrates entry is “decreased”, the lavage cell counts result is on record as “decreased”, the “lavage pro-inflammatory cytokine levels” value is reported as “significantly decreased” and the lavage protein concentration entry is given as “decreased”. Further, in the series on C57BL6 mice [2], the lung compliance result is reported as “increased compliance”, the lung elastance entry is given as “reduced elastance” and the lung resistance result is “decreased lung resistance”. The cell cycle progression result in the series on Hela cells is given as “did not significantly alter cell cycle progression”. For the same molecule, in the series on C57BL6 mice [3], the cell infiltrates entry is “remarkably decreased”, the lavage cell counts result is on record as “remarkably decreased”, the lavage protein concentration entry was “remarkably decreased” and the lung compliance result is listed as “increased compliance”. Also, in the series with C57BL6 mice [3], the lung edema entry is given as “remarkably decreased”, the lung elastance result is “reduced elastance” and the survival result is “significantly increased their survival”. In the series with C57BL6 mice [4], the “IC50 IL-1β” value was 1 mg/kg, the “IC50 IL-6” value is listed as 2.5 mg/kg and the “IC50 TNFα” value came out at 1.2 mg/kg.

The record behind these values is US11857550B2, “Benzathine analogs” (University of Pittsburgh—Of the Commonwealth System of …, priority 2012, dated 2024).
